This note sets out measurements from article PMC8092843 (Journal of Virology, 2021).

Ends that are not written are not given here.

For one assay, the target named is HLA-A*02:01 molecule (UniProt P01899+P04439, D140Y/D185E/D98H/E176V/G131W/I119V/I121R/I166T/N151K/N90K/Q86G/Q94H/R138H/R169H). In words: cell-based. The format is binding, human.
Conditions: not given
“GILFGVFTL [FMP58-66, reference compound]” gave an EC50 of 2.3 µM.

Staying with this assay, now noted: SD.
Consider AIFYLITPV [pp1a-2785], for which a half-maximal response (EC50) required 5.1 ± 1.6 µM.
ALLSDLQDL [pp1a-4183] gave an EC50 of 42.4 ± 6.1 µM.
On to ALNLGETFV [pp1a-702], for which the EC50 stood at 40.7 ± 2.8 µM.
Sequence CLHVVGPNV [pp1a-1114] came in with an EC50 of 62.9 ± 2.3 µM.
In turn, CLLNRYFRL [pp1a-3798] came in with an EC50 of 81.6 ± 20.2 µM.
Sequence FITESKPSV [pp1a-1214] returned an EC50 of 122 ± 31.7 µM.
As to FLAHIQWMV [pp1a-3122], the response was half-maximal at 6.9 ± 0.4 µM (EC50).
Regarding FLALCADSI [pp1a-685], the EC50 turned out to be 10.2 ± 0.5 µM.
The sequence FLARGIVFM [pp1a-3753] came in with an EC50 of 71.2 ± 12.9 µM.
In turn, FLGRYMSAL [pp1a-1642] gave an EC50 of 124 ± 1.9 µM.
Still for that read-out and setting: the result for FLLNKEMYL [pp1a-3183] reads 12.9 ± 6.8 µM; that for FLNGSCGSV [pp1a-3403], 18.7 ± 3.2 µM; that for FLRDGWEIV [pp1a-641], 0.9 ± 0.1 µM.
Sequence GLNDNLLEI [pp1a-445] came in with an EC50 of 6 ± 0.2 µM.
On the same count and under the same terms, the result for GLVEVEKGV [pp1a-52] reads 14.5 ± 4.9 µM; that for IIWFLLLSV [pp1a-2230], 177 ± 6.3 µM; that for ILFTRFFYV [pp1a-2332], 96.5 ± 14 µM.
The same measure, in the same setting: the result for ILGTVSWNL [pp1a-1367] reads 123 ± 11.3 µM; that for ILLLDQALV [pp1a-2569], 9.6 ± 1.5 µM; that for ILTSLLVLV [pp1a-3587], 8.3 ± 0.9 µM.
Sequence IVAGGIVAI [pp1a-3047] showed an EC50 of 50.5 ± 2.5 µM.
KLIEYTDFA [pp1a-2901] had an EC50 of 126 ± 2.5 µM.
On to KLMPVCVET [pp1a-1387], for which the EC50 is 174 ± 33.5 µM.
The sequence KLNEEIAII [pp1a-468] gave an EC50 of 56.2 ± 4.8 µM.
On to KLWAQCVQL [pp1a-3886], for which the EC50 was 27.2 ± 9.4 µM.
KTLQPVSEL [pp1a-881] came in with an EC50 of 162 ± 28.3 µM.
LLFLMSFTV [pp1a-3083] displayed an EC50 of 39.4 ± 0.9 µM.
For LLLTILTSL [pp1a-3583], the EC50 came out at 63.8 ± 3.1 µM.
As for LMWLIINLV [pp1a-2364], the EC50 worked out at 159 ± 42.8 µM.
As to MLAKALRKV [pp1a-1312], the EC50 is 95.2 ± 0.7 µM.
Sequence MLFTMLRKL [pp1a-4032] registered an EC50 of 166 ± 21.7 µM.
For the sequence NLAKHCLHV [pp1a-1109], the response was half-maximal at 38.5 ± 8.2 µM (EC50).
The same measure, in the same setting: the result for QLFFSYFAV [pp1a-2348] reads 146 ± 19.7 µM; that for QLMCQPILL [pp1a-2563], 11.1 ± 1.8 µM; that for QLSLPVLQV [pp1a-15], 79.4 ± 4.4 µM.
Take RIMTWLDMV [pp1a-3662]: the EC50 stood at 76.5 ± 7.1 µM.
Regarding SLINTLNDL [pp1a-1433], the EC50 is 123 ± 11 µM.
Consider SLIYSTAAL [pp1a-2242], for which the EC50 is 134 ± 7.6 µM.
SLPGVFCGV [pp1a-3013] displayed an EC50 of 3.1 ± 0.2 µM.
The sequence SLRVCVDTV [pp1a-1161] returned an EC50 of 85.7 ± 1.9 µM.
The same measure, in the same setting: the result for SMQNCVLKL [pp1a-3344] reads 105 ± 2.2 µM; that for SMWALIISV [pp1a-3732], 8.9 ± 0.4 µM.
TLGVLVPHV [pp1a-103] came in with an EC50 of 1.3 ± 0.2 µM.
Regarding TLGVYDYLV [pp1a-3807], the EC50 was 61.7 ± 8.7 µM.
Regarding TLMNVLTLV [pp1a-3710], the EC50 stood at 2 ± 0.4 µM.
TLSEQLDFI [pp1a-214]: the EC50 is 2 ± 0.2 µM.
Regarding TVYEKLKPV [pp1a-619], it took 5.6 ± 0.7 µM to reach a half-maximal effect (EC50).
For VINGDRWFL [pp1a-3475], the EC50 was 85 ± 5.4 µM.
Same read-out and setting: the result for VLLSMQGAV [pp1a-3917] reads 112 ± 7.2 µM; that for VLLSVLQQL [pp1a-3871], 44.9 ± 6 µM.
Consider VLSEARQHL [pp1a-38], for which the EC50 was determined as 76.8 ± 6.8 µM.
On the same count and under the same terms, the result for VLVPHVGEI [pp1a-106] reads 76 ± 2 µM; that for VMAYITGGV [pp1a-597], 9.5 ± 0.9 µM; that for VMVELVAEL [pp1a-84], 6.8 ± 0.3 µM.
For the sequence WLMWLIINL [pp1a-2363], a half-maximal effect (EC50) was put at 103 ± 6.4 µM.
With WMVMFTPLV [pp1a-3128], a half-maximal response (EC50) required 9.8 ± 1.1 µM.
Turning to YITGGVVQL [pp1a-600], a half-maximal response (EC50) required 48.5 ± 7.9 µM.
On the same count and under the same terms, the same measure for YLASGGQPI [pp1a-4283]: 39.8 ± 6.2 µM.
On to YLATALLTL [pp1a-1675], for which the EC50 is 8.4 ± 0.2 µM.
YLEGSVRVV [pp1a-2968]: the EC50 is 7.5 ± 0.1 µM.
On the same count and under the same terms, the result for YLNSTNVTI [pp1a-2270] reads 8.9 ± 0.3 µM.
The sequence YLTNDVSFL [pp1a-3115] gave an EC50 of 4.8 ± 0.3 µM.
YMPYFFTLL [pp1a-2168] had an EC50 of 99 ± 2.4 µM.

One may read the EC50 as the concentration at which the effect is half-maximal. Higher therefore signals lower potency in that assay.
